In ChEMBL document CHEMBL1201862, “PubChem BioAssay data set” (2004):
Activity calls are given as the source filed them.

Experiments:
[1] = target: T1, Replicative DNA helicase DnaB (Mycobacterium tuberculosis, UniProt P9WMR3); test: DnaB intein splicing inhibitors, dose response, biochemical, cell-free fluorescence (AID 449749); format: functional
T1 sequence (P9WMR3 whole entry): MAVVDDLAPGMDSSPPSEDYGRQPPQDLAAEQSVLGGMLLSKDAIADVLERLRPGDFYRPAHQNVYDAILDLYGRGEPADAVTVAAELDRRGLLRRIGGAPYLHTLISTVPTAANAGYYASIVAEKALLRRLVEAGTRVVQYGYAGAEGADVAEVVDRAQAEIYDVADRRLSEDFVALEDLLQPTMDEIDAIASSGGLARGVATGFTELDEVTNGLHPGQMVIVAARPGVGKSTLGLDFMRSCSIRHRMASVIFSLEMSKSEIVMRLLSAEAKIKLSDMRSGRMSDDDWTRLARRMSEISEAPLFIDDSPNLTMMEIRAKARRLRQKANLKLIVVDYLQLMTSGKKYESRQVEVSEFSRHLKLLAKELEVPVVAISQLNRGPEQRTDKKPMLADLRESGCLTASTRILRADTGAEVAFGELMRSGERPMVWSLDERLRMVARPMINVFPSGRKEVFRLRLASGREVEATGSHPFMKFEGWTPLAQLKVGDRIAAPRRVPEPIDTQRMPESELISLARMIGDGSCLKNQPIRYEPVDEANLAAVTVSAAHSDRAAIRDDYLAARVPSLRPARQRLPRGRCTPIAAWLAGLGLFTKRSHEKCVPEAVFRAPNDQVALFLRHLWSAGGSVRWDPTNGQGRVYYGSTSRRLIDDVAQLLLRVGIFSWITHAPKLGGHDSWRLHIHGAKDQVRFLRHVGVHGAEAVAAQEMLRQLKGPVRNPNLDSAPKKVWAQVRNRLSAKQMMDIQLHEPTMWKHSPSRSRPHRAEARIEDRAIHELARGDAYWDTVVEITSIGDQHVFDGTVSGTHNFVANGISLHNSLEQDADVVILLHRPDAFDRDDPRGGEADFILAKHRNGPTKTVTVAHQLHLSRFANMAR

[2] = target: T2, Protein RecA (Mycobacterium tuberculosis, UniProt P9WHJ3); test: Fluorescence Cell-Free Homogeneous Dose Retest to Identify Inhibitors of RecA-Intein Splicing Activity. [Related pubchem assays (depositor defined):AID2097, AID2223, AID489010, AID492950]; format: functional
T2 sequence (P9WHJ3 whole entry): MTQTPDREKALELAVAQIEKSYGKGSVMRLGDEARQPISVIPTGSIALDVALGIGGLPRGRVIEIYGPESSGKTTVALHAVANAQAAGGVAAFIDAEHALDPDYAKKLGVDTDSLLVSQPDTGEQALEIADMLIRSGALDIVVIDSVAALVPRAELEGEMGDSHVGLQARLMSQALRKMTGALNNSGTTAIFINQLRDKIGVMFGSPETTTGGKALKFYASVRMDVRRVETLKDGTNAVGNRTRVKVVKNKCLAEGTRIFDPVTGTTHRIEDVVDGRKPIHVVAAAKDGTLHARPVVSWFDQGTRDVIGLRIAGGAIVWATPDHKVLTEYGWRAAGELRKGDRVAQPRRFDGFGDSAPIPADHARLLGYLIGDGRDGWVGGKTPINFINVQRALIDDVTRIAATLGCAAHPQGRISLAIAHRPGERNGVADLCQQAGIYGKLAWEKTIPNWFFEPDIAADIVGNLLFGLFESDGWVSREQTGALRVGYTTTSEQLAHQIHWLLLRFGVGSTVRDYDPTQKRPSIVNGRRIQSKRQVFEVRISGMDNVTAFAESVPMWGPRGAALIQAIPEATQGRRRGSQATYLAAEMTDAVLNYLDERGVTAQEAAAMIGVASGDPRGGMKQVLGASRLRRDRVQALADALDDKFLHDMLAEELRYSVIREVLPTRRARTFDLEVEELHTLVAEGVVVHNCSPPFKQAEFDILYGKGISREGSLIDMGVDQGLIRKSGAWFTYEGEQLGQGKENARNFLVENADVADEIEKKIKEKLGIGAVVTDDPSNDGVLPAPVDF

[3] = target: Cytochrome P450 3A4 (Homo sapiens, UniProt P08684);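 note: CYP3A4 tested as one member of a cytochrome P450 panel screen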
[4] = target: T3, Endoribonuclease toxin MazF (Escherichia coli K-12, UniProt P0AE70); test: fluorescent RNA oligo signal without MazF, dose response, counter-screen for MazEF activator project, biochemical, fluorescence, single-stranded RNase substrate (AID 588502); format: functional
T3 sequence (P0AE70 whole entry): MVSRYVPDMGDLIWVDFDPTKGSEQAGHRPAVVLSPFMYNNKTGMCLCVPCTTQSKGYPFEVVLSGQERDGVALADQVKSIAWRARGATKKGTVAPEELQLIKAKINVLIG

[5] = target: T3, Endoribonuclease toxin MazF; test: MazF toxin RNase activators, dose response, biochemical, fluorescence, single-stranded RNA substrate, uHTS hits (AID 588481); format: functional
[6] = target: Cytochrome P450 2C9 (Homo sapiens, UniProt P11712)
[7] = target: T4, Alkaline phosphatase, tissue-nonspecific isozyme (Homo sapiens, UniProt P05186); test: human TNAP enzyme inhibitors, SAR follow-up, biochemical, luminescent, dose response (AID 1056)
T4 sequence (P05186 whole entry): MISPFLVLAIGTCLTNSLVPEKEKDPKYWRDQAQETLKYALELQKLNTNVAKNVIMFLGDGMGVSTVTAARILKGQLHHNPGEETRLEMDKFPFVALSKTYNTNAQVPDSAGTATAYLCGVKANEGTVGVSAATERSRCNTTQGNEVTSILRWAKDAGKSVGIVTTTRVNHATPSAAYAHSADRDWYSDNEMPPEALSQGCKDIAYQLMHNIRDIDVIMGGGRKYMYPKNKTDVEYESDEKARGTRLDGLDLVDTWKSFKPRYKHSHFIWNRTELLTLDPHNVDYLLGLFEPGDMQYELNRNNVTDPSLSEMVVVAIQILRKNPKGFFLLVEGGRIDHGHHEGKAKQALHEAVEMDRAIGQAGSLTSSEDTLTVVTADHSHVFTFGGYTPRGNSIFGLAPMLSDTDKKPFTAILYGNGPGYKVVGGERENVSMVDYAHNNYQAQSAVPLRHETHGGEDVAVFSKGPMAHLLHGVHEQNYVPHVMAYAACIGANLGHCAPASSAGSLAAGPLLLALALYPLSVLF

[8] = target: Glyceraldehyde-3-phosphate dehydrogenase (Homo sapiens, UniProt P04406)
[9] = tested on: HeLa; test: HeLa cell cytotoxicity, dose response, cytotoxicity control for MITF activator project, CellTiter-Glo luminescence, cherry-pick samples (AID 540259); format: functional, cell-based; details: Homo sapiens
[10] = HepG2 cell cytotoxicity, dose response, cytotoxicity control, plate reader, cherry-pick, antagonist series (AID 743416); format: functional, cell-based
[11] = MC4R antagonists, dose response, counter-screen for LGR2 antagonist project, cell-based, plate reader, cherry pick (AID 743444); format: functional;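 note: transfected HEK 293 cells stimulated with alpha-MSH peptide; potency of inhibitors of the alpha-MSH evoked signal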
[12] = tested on: Vero; test: cells; format: functional; details: Chlorocebus sabaeus
[13] = HEK293 cell cytotoxicity, dose response, cytotoxicity control, plate reader, cherry-picked samples (AID 743446); format: functional, cell-based
[14] = LGR2 antagonists, dose response, cell-based, HEK293, CRE-luciferase reporter, cherry pick, set 2 (AID 743343); format: functional;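 note: transfected cells were stimulated with diluted bursicon conditioned medium after compound addition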
[15] = A549 cell cytotoxicity, dose response, cytotoxicity control, plate reader, cherry-pick, antagonist series (AID 743412); format: functional, cell-based
[16] = target: Troponin, cardiac muscle (Homo sapiens, UniProt P19429+P45379+P63316); test: Fluorescence-based biochemical high throughput dose response assay for activators of the calcium sensitivity of cardiac Regulated Thin Filaments (RTF). [Related pubchem assays (depositor defined):AID493008, AID493018, AID504382, AID504383]; format: protein-complex assay
[17] = Luminescence Cell-Based Dose Retest to Confirm Inhibitors of Cancer Stem Cells. [Related pubchem assays (depositor defined):AID2717, AID2721]; format: functional; details: Homo sapiens
[18] = tested on: HEK293; test: inhibitors of LMP1-driven NF-kB reporter, dose response, cell-based, HEK293, luciferase, cherry-pick (AID 588343); format: functional; details: Homo sapiens

With `CN(C(=O)C(Cl)Cl)c1ccc(OC(=O)c2ccco2)cc1` [DILOXANIDE FUROATE] the AC50 [1] was 13.9 µM (active), the EC50 [2] was 10.3 µM (active) and the AC50 [3] was “inconclusive”.
For `CCc1ccc[n+](-c2nc3ccccc3nc2[C-](C#N)C#N)c1`, the EC50 [4] was > 99 µM (inactive) and the EC50 [5] was 59.2 µM (inactive).
In the case of `Cn1c(=N)c(S(=O)(=O)c2ccc(F)cc2)cc2c(=O)n3ccccc3nc21`, the AC50 [3] is reported as “inconclusive” and the AC50 [6] is reported as 17.8 µM (inconclusive).
In the case of `COc1ccc(S(=O)(=O)Nc2cnc3ccccc3c2)cc1OC`, the IC50 [7] is reported as > 100 µM (inactive) and the IC50 [8] is reported as > 100 µM (not active).
In the case of `O=C(CCNc1ccccc1)c1ccc2c(c1)OCO2`, the AC50 [9] is reported as 111 µM (active).
In the case of `O=C(Cc1nc2ccccc2[nH]1)c1cccc([N+](=O)[O-])c1`, the AC50 [10] is reported as 11.2 µM (active), the AC50 [11] is reported as 5.45 µM (active) and the CC50 [12] is reported as 6.19 µM (active). For the same molecule, the AC50 [13] was 12.1 µM (active), the AC50 [14] was 4.47 µM (active) and the AC50 [15] was 20.7 µM (active).
For `COc1ccc(CCNC(=O)COC(=O)c2cc(=O)[nH]c3ccccc23)cc1`, the EC50 [16] was > 71.5 µM (inactive).
In the case of `CC1CCC(NC(=O)c2cc3ccccc3cc2O)CC1` (stereo unspecified), the AC50 [9] is reported as 35.2 µM (active).
In the case of `CC1=NN(c2ccccc2)C(=O)/C1=C/C=C/c1ccccc1`, the CC50 [12] is reported as 11.3 µM (active) and the AC50 [17] is reported as 2.41 µM (active).
In the case of `N#Cc1c(NC(=O)CCCC(=O)O)sc2c1CCCCC2`, the AC50 [18] is reported as 4.36 µM (active).
